Laboratory results published in ChEMBL document CHEMBL1765058, “Structural basis for the interaction between carbonic anhydrase and 1,2,3,4-tetrahydroisoquinolin-2-ylsulfonamides” (J Med Chem, 2011).
pKi: −log10 of the molar value.

Molecular target: Carbonic anhydrase 7 (Homo sapiens, UniProt P43166)
Assay: Inhibition of human recombinant CAH7

Chain of Carbonic anhydrase 7 (P43166 whole entry): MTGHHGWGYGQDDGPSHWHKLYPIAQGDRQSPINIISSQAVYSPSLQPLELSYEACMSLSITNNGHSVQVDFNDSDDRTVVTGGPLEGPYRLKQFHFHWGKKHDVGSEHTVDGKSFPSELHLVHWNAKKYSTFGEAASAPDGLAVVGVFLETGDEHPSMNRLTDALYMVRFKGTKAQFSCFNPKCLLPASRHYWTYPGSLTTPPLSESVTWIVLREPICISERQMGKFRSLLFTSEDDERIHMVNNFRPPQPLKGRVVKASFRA

pKi: 8.19
Compound: COc1cc2c(cc1OC)C(C)N(S(N)(=O)=O)CC2 (stereo unspecified)
